# In patent US20240400555A1 (Initial Therapeutics, Inc., priority 2023, published 2024):
# pIC50: −log10 of the molar value.
# System: MV-4-11 cells
# Experiment: Cell Viability Assay in MV-4-11 Cells
# Type: cell-based
# Settings: Homo sapiens, MV4-11, 72 h, MV-4-11 cells, 72 h, Cell-Titer Glo; read-out: IC50
# In short: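 Luminescent ATP read-out (CellTiter-Glo) after 72 h compound treatment of MV-4-11 leukaemia cells (7,000 per well, IMDM plus 10% FBS). Values expressed relative to DMSO control and derived by four-parameter non-linear regression.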
row,SMILES,pIC50
1,"Cc1cccc2ccnc(N(C(=O)c3ccc(Nc4nccc(N5CCOCC5c5cccnc5)n4)cc3F)[C@@H]3CCCNC3)c12 (stereo partly drawn) [Example 958, 2-fluoro-N-(8-methylisoquinolin-1-yl)-N—((R)-piperidin-3-yl)-4-((4-(3-(pyridin-3-yl)morpholino)pyrimidin-2-yl)amino)benzamide]",7.33
2,"[2H]C([2H])([2H])c1nnc(-c2ccc(C(=O)N(c3nccc4cc(OC)cc(C)c34)[C@@H]3CCCNC3)cc2)s1 [Example 908, N-(6-methoxy-8-methyl-1-isoquinolyl)-N-[(3R)-3-piperidyl]-4-[5-(trideuteriomethyl)-1,3,4-thiadiazol-2-yl]benzamide]",7.11
3,"COCCCc1nnc(-c2ccc(C(=O)N(c3nccc4scc(C)c34)[C@@H]3CCCNC3)cc2)s1 [Example 876, 4-[5-(3-methoxypropyl)-1,3,4-thiadiazol-2-yl]-N-(3-methylthieno[3,2-c]pyridin-4-yl)-N-[(3R)-3-piperidyl]benzamide]",6.54
4,"COCC1CCN(c2ccnc(Nc3ccc(C(=O)N(c4nccc5cccc(C)c45)[C@@H]4CCCNC4)c(F)c3)n2)CC1 [Example 964, (R)-2-fluoro-4-((4-(4-(methoxymethyl)piperidin-1-yl)pyrimidin-2-yl)amino)-N-(8-methylisoquinolin-1-yl)-N-(piperidin-3-yl)benzamide]",7.19
5,"Cc1cccc2ccnc(N(C(=O)c3ccc(Nc4nccc(NC5CCOCC5)n4)cc3F)[C@@H]3CCCNC3)c12 [Example 954, (R)-2-fluoro-N-(8-methylisoquinolin-1-yl)-N-(piperidin-3-yl)-4-((4-((tetrahydro-2H-pyran-4-yl)amino)pyrimidin-2-yl)amino)benzamide]",7.51
6,"COCc1nnc(-c2ccc(C(=O)N(c3nccc4cc(C)cc(C)c34)[C@@H]3CCCNC3)cn2)s1 [Example 896, N-(6,8-dimethyl-1-isoquinolyl)-6-[5-(methoxymethyl)-1,3,4-thiadiazol-2-yl]-N-[(3R)-3-piperidyl] pyridine-3-carboxamide]",7.34
7,"Cc1nsc(-c2ccc(C(=O)N(c3nccc4scc(C)c34)[C@@H]3CCCNC3)c(F)c2)n1 [Example 779, (R)-2-fluoro-4-(3-methyl-1,2,4-thiadiazol-5-yl)-N-(3-methylthieno[3,2-c]pyridin-4-yl)-N-(piperidin-3-yl)benzamide]",5.89
8,"Cc1nnc(-c2ccc(C(=O)N(c3nccc4scc(C)c34)[C@@H]3CCCNC3)cn2)s1 [Example 629, 6-(5-methyl-1,3,4-thiadiazol-2-yl)-N-(3-methylthieno[3,2-c]pyridin-4-yl)-N-[(3R)-3-piperidyl]pyridine-3-carboxamide]",6.80
9,"COc1cc(C(=O)N(c2nccc3cc(Cl)cc(C)c23)[C@@H]2CCCNC2)ccc1-c1nnc(C)s1 [Example 706, (R)—N-(6-chloro-8-methylisoquinolin-1-yl)-3-methoxy-4-(5-methyl-1,3,4-thiadiazol-2-yl)-N-(piperidin-3-yl)benzamide]",6.38
10,"Cc1cc(-c2ccc(C(=O)N(c3nccc4scc(C)c34)[C@@H]3CCCNC3)nc2)on1 [Example 797, (R)-5-(3-methylisoxazol-5-yl)-N-(3-methylthieno[3,2-c]pyridin-4-yl)-N-(piperidin-3-yl)picolinamide]",6.77
11,"Cc1cccc2ccnc(N(C(=O)c3ccc(Nc4nccc(N5CC[C@@H](O)C5)n4)cc3F)[C@@H]3CCCNC3)c12 [Example 684, 2-fluoro-4-((4-((R)-3-hydroxypyrrolidin-1-yl)pyrimidin-2-yl)amino)-N-(8-methylisoquinolin-1-yl)-N—((R)-piperidin-3-yl)benzamide]",7.23
12,"Cc1cccc2ccnc(N(C(=O)c3ccc(Nc4ncccn4)nc3)[C@@H]3CCCNC3)c12 [Example 846, (R)—N-(8-methylisoquinolin-1-yl)-N-(piperidin-3-yl)-6-(pyrimidin-2-ylamino)nicotinamide]",6.38
13,"Cc1cccc2ccnc(N(C(=O)c3ccc(Nc4nccc(N5CCOCC5)n4)cc3F)[C@@H]3CCCNC3)c12 [Example 408, (R)-2-fluoro-N-(8-methylisoquinolin-1-yl)-4-((4-morpholinopyrimidin-2-yl)amino)-N-(piperidin-3-yl)benzamide]",8.28

# The remaining lines, values ahead:
row,pIC50,SMILES
1,7.16,"Cc1nnc(-c2ccc(C(=O)N(c3nccc4cc(Cl)cc(C)c34)[C@@H]3CCCNC3)c(F)c2)s1 [Example 815, (R)—N-(6-chloro-8-methylisoquinolin-1-yl)-2-fluoro-4-(5-methyl-1,3,4-thiadiazol-2-yl)-N-(piperidin-3-yl)benzamide]"
2,7.22,"[2H]C([2H])([2H])n1cc(-c2ccc(C(=O)N(c3nccc4cccc(C)c34)[C@@H]3CCCNC3)c(F)c2)nn1 [Example 890, 2-fluoro-N-(8-methyl-1-isoquinolyl)-N-[(3R)-3-piperidyl]-4-[1-(trideuteriomethyl)triazol-4-yl]benzamide]"
3,6.59,"Cc1cccc2ccnc(N(C(=O)c3ccc(Nc4nccc(N)n4)cc3F)[C@@H]3CCCNC3)c12 [Example 848, (R)-4-((4-aminopyrimidin-2-yl)amino)-2-fluoro-N-(8-methylisoquinolin-1-yl)-N-(piperidin-3-yl)benzamide]"
4,7.30,"Cc1cccc2ccnc(N(C(=O)c3ccc(-c4cncs4)cc3F)[C@@H]3CCCNC3)c12 [Example 314, (R)-2-fluoro-N-(8-methylisoquinolin-1-yl)-N-(piperidin-3-yl)-4-(thiazol-5-yl) benzamide]"
5,6.19,"Cn1cc(/C=C/c2ccnc(N(C(=O)c3ccc(-n4nnc5cccnc54)cc3F)[C@@H]3CCCNC3)c2)cn1 [Example 430, 2-fluoro-N-[4-[(E)-2-(1-methylpyrazol-4-yl)vinyl]-2-pyridyl]-N-[(3R)-3-piperidyl]-4-(triazolo[4,5-b]pyridin-3-yl)benzamide]"
6,6.89,"O=C(c1ccc(-n2nnc3cccnc32)cc1F)N(c1nccc2sc(-c3ccc4[nH]ncc4c3)cc12)[C@@H]1CCCNC1 [Example 557, 2-fluoro-N-[2-(1H-indazol-5-yl)thieno[3,2-c]pyridin-4-yl]-N-[(3R)-3-piperidyl]-4-(triazolo[4,5-b]pyridin-3-yl)benzamide]"
7,7.85,"Cc1cc(F)cc2ccnc(N(C(=O)c3ccc(Nc4ncccn4)cc3F)[C@@H]3CCCNC3)c12 [Example 564, (R)-2-fluoro-N-(6-fluoro-8-methylisoquinolin-1-yl)-N-(piperidin-3-yl)-4-(pyrimidin-2-ylamino)benzamide]"
8,6.03,"Cn1cc(-c2ccc(C(=O)N(c3nccc4sc(-c5ccnc(N)n5)cc34)[C@@H]3CCCNC3)c(F)c2)nn1 [Example 484, N-[2-(2-aminopyrimidin-4-yl)thieno[3,2-c]pyridin-4-yl]-2-fluoro-4-(1-methyltriazol-4-yl)-N-[(3R)-3-piperidyl]benzamide]"
9,6.22,"COC(=O)c1ccc(-c2cc3c(N(C(=O)c4ccc(-n5nnc6cccnc65)cc4F)[C@@H]4CCCNC4)nccc3s2)cc1 [Example 375, methyl 4-[4-[[2-fluoro-4-(triazolo[4,5-b]pyridin-3-yl)benzoyl]-[(3R)-3-piperidyl]amino]thieno[3,2-c]pyridin-2-yl]benzoate]"
10,6.89,"Cc1cc(F)cc2ccnc(N(C(=O)c3ccc(-c4nnn(C)c4C)cc3F)[C@@H]3CCCNC3)c12 [Example 829, (R)-4-(1,5-dimethyl-1H-1,2,3-triazol-4-yl)-2-fluoro-N-(6-fluoro-8-methylisoquinolin-1-yl)-N-(piperidin-3-yl)benzamide]"
11,7.28,"Cc1cc(Cl)cc2ccnc(N(C(=O)c3ccc(-c4nnn(C)c4CO)cc3F)[C@@H]3CCCNC3)c12 [Example 618, (R)—N-(6-chloro-8-methylisoquinolin-1-yl)-2-fluoro-4-(5-(hydroxymethyl)-1-methyl-1H-1,2,3-triazol-4-yl)-N-(piperidin-3-yl)benzamide]"
12,6.70,"CNS(=O)(=O)c1ccc(-c2cc3c(N(C(=O)c4ccc(-c5cn(C)nn5)cc4F)[C@@H]4CCCNC4)nccc3s2)cc1 [Example 534, (R)-2-fluoro-4-(1-methyl-1H-1,2,3-triazol-4-yl)-N-(2-(4-(N-methylsulfamoyl)phenyl)thieno[3,2-c]pyridin-4-yl)-N-(piperidin-3-yl)benzamide]"
13,7.04,"O=C(c1ccc(-n2nnc3cccnc32)cc1F)N(c1nccc2sc(-c3ccc4ncnn4c3)cc12)[C@@H]1CCCNC1 [Example 434, (R)-4-(3H-[1,2,3]triazolo[4,5-b]pyridin-3-yl)-N-(2-([1,2,4]triazolo[1,5-a]pyridin-6-yl)thieno[3,2-c]pyridin-4-yl)-2-fluoro-N-(piperidin-3-yl)benzamide]"
14,< 5.22,"CNC(=O)C#Cc1cc2c(N(C(=O)c3ccc(-c4cn(C)nn4)cc3F)[C@@H]3CCCNC3)nccc2s1 [Example 550, 2-fluoro-N-[2-[3-(methylamino)-3-oxo-prop-1-ynyl]thieno[3,2-c]pyridin-4-yl]-4-(1-methyltriazol-4-yl)-N-[(3R)-3-piperidyl] benzamide]"
15,5.92,"CC(C)Cn1cc(-c2cc3c(N(C(=O)c4ccc(-n5nnc6cccnc65)cc4F)[C@@H]4CCCNC4)nccc3s2)nn1 [Example 415, 2-fluoro-N-[2-(1-isobutyltriazol-4-yl)thieno[3,2-c]pyridin-4-yl]-N-[(3R)-3-piperidyl]-4-(triazolo[4,5-b]pyridin-3-yl)benzamide]"
16,6.36,"Cc1cc(-c2ccc(C(=O)N(c3nccc4cccc(C)c34)[C@@H]3CCCNC3)c(F)c2)[nH]n1 [Example 323, (R)-2-fluoro-4-(3-methyl-1H-pyrazol-5-yl)-N-(8-methylisoquinolin-1-yl)-N-(piperidin-3-yl) benzamide]"
17,< 5.00,"Cc1nc(-c2ccc(C(=O)N(c3nccc4cccc(C)c34)[C@@H]3CCCNC3)c(F)c2)c(N)[nH]1 [Example 389, 4-(5-amino-2-methyl-1H-imidazol-4-yl)-2-fluoro-N-(8-methyl-1-isoquinolyl)-N-[(3R)-3-piperidyl]benzamide]"
